Measured values from patent US20030089472A1, “Laccase activity enhancers for pulp bleaching” (priority 2001, published 2003).

Test system: laccase (NS51003, Novozymes A/S, Denmark)
Experiment: Delignification of a softwood Kraft pulp using a laccase-mediator system (change in Kappa number, TAPPI T236 cm-85)
Type: biochemical
Conditions: for Kappa # (Mediator): pH 5.5
Description: Delignification of a Softwood Kraft Pulp Using a Laccase-Mediator System in the Presence of a Mediator
In the following example, a softwood Kraft pulp was delignified using a laccase-mediator system. The Kraft process is well known to those skilled in the art and is described, for example, by Swen A. Rydholm in “Pulping Process”, Interscience Publishers, New York, N.Y. (1965), p. 576.
A softwood Kraft pulp, Kappa number 31.0, was treated with a laccase (NS51003, Novozymes A/S, Denmark) under the following conditions:
The dried pulp was added to 80 ml of 50 mM phosphate, pH 5.5, and disintegrated in a blender. The pulp was then transferred to a 500 ml conical flask, and the blender was washed with 20 ml of the same buffer. The washed buffer and the pulp were combined. The mediator was added at 1-4% (w/w, based on the dry pulp) (Dosage) followed by the addition of the laccase. The pH of the pulp mixture was adjusted to 5.5 if needed. The flask was covered with an aluminum foil with holes punched through and incubated at 50° C. for 16 hrs on a rotary shaker at 200 rpm.
After the enzymatic treatment, the pulp mixture was filtered through a Buchner funnel and the pulp was washed with water. The pulp from the control experiment was treated at the same pH and temperature as described above in the absence of mediators.
The washed pulp was then treated with an alkaline solution under the following conditions:
The filtered pulp was repulped in the alkaline solution and incubated at 70° C. for 3 hrs. The pH of the pulp mixture should be between 11.7-12.00 during the entire treatment. After the treatment, the pulp mixture was filtered through a Buchner funnel, and the pulp was washed with water extensively, and then dried in a hood overnight.
The delignification of the pulp was measured as the change in Kappa number according to TAPPI method T236 cm−85. Briefly, a known mass of paper pulp (containing lignin) was reacted with an excess of potassium permanganate in acid solution for a specified period of time to oxidize the lignin. After the reaction, the residual permanganate was determined by titration. The Kappa number was defined as the volume (ml) of 0.1N potassium permanganate consumed by 1 g of moisture-free pulp in 0.5N sulfuric acid after a ten minute reaction time at 25° C. under conditions such that one-half of the permanganate remained unreacted. A linear relationship with the lignin content of the pulp and the measurement of the Kappa number had already been done on samples as low as 300 mg of pulp.

CN(C)C(=S)[S-].O.[Na+] [Sodium dimethyldithio carbonate hydrate]
Δ Kappa #: −0.7
Kappa # (Mediator): 28.6

Oc1ccccc1 [Phenol]
Δ Kappa #: −1.1
Kappa # (Mediator): 25.0

Cc1ccc2nc(-c3ccc(N=NNc4ccc(-c5nc6ccc(C)c(S(=O)(=O)[O-])c6s5)cc4)cc3)sc2c1S(=O)(=O)[O-].[Na+].[Na+] [Thiazol Yellow G]
Δ Kappa #: −3.0
Kappa # (Mediator): 21.9

C(=NCc1ccccc1)c1ccccc1 [N-Benzylidene-benzylamine]
Δ Kappa #: −0.3
Kappa # (Mediator): 28.3
